# PMC7701510, “Identification of HN252 as a potent inhibitor of protein phosphatase PPM1B” (Journal of Cellular and Molecular Medicine, 2020)
# Residue numbers refer to the chain shown, from its start.
# Assays:
# HL7702 cells = test: Western blot of protein phosphorylation after HN252 treatment; format: cell-based
# Protocol: HL7702, COS7, PC‐3 and HCT116 cells were purchased from the Cell Bank of the Shanghai Institute for Biological Sciences, Chinese Academy of Science. HCT116, COS7 and PC3 cells were cultured in DMEM (Gibco); HL7702 cells were cultured in RPMI 1640 medium (Gibco). All media were supplemented with 10% foetal bovine serum (Biological Industries), 100 IU penicillin and […] streptomycin at 37°C in a humidified incubator with 5% CO2.
# PPM1G = target: T1, PPM1G (Homo sapiens, UniProt O15355); test: pNPP hydrolysis phosphatase assay (selectivity panel); format: biochemical; settings: pNPP as substrate
# T1 sequence (O15355 1-546): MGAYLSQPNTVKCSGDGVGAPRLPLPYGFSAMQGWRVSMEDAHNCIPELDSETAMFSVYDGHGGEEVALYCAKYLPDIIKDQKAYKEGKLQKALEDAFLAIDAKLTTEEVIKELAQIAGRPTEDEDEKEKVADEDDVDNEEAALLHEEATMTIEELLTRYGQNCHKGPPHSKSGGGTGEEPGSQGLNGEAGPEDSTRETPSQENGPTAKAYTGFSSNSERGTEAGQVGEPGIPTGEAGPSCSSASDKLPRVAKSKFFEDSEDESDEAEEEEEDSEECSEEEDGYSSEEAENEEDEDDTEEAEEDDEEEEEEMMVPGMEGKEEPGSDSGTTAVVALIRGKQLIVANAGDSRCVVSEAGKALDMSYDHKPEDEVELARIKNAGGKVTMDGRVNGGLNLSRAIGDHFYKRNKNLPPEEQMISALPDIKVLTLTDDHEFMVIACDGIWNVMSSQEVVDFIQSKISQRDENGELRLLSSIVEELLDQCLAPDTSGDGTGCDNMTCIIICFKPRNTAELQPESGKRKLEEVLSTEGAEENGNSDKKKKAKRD
# PPM1F = target: T2, PPM1F (Homo sapiens, UniProt P49593); test: as above; format: biochemical; settings: pNPP as substrate
# T2 sequence (P49593 1-454): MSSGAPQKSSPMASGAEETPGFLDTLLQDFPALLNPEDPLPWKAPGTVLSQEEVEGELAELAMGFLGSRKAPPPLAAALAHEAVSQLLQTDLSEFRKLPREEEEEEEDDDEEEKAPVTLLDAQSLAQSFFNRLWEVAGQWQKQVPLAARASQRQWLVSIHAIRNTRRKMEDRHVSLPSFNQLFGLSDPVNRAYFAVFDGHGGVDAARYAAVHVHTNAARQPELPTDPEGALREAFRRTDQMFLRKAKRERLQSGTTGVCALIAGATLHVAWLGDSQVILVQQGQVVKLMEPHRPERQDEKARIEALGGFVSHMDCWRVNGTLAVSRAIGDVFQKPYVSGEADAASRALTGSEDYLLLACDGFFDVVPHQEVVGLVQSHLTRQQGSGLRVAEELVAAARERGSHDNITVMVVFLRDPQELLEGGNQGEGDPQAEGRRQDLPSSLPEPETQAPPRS
# PPM1B-R33K = target: T3, PPM1B-R33K (Homo sapiens, UniProt O75688, R33K); test: pNPP hydrolysis assay with PPM1B mutant; format: biochemical; settings: pNPP substrate, pH 7.0, 37°C
# T3 construct: inferred from pET-28a vector and Ni-NTA purification; made in house; host or cells: Escherichia coli BL21
# T3 sequence (O75688 1-479 R33K): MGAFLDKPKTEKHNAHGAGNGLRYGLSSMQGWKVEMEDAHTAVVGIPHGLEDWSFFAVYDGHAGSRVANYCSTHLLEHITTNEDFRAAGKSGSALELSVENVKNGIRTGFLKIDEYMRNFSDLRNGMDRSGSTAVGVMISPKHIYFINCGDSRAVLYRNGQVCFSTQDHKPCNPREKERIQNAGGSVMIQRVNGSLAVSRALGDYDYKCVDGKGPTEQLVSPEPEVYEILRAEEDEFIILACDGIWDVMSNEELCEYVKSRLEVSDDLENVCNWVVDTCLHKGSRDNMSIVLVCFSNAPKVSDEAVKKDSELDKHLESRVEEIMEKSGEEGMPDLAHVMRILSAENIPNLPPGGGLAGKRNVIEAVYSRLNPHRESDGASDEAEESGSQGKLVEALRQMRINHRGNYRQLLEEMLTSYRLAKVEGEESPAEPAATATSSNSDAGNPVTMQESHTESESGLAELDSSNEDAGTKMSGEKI
# Protocol: (§1) Escherichia coli BL21 strain was transformed with pET‐28a bacterial expression vector harbouring PPM1B and its mutants. ^17 The fusion proteins were induced to be expressed with 0.5 mM isopropyl‐β‐D‐thiogalactoside (IPTG) and purified from bacterial lysate by Ni‐NTA chromatographic matrices (Qiagen) and AKTA FPLC (GE Healthcare Life Sciences) using a Superdex Increase 200 column.
# (§2) The kinetic assays of PPM1B were carried out at 37°C in 0.1 M acetic acid buffer (50 mM Tris, 40 mM Mn^2+, pH 7.0). The p‐nitrophenyl phosphate (pNPP, Sigma) was used as the substrate which could be conveniently measured at 405 nm. Reactions were started by addition of pNPP to a reaction mixture containing PPM1B (0.4 μM PPM1B, final concentration) and various concentrations of HN252 and stopped by addition of 0.5 M EDTA (pH 10.0) after an appropriate time. The Km value of PPM1B towards pNPP hydrolysis (3.6 mM for pNPP) was used to determine the IC50. The IC50 values, the inhibition constant Ki and inhibition pattern were evaluated as previously described. ^18 The kinetic assays of HN252 towards to other protein phosphatases were carried out as previously described. ^19
# PPM1B-K170A = target: T4, PPM1B-K170A (Homo sapiens, UniProt O75688, K170A); test: pNPP hydrolysis assay with PPM1B mutant; format: biochemical; settings: pNPP substrate, pH 7.0, 37°C
# T4 construct: inferred from pET-28a vector and Ni-NTA purification; made in house; host or cells: Escherichia coli BL21
# T4 sequence (O75688 1-479 K170A): T3 sequence (O75688 1-479 R33K) with K33R, K170A
# Protocol: as §1, §2
# Cytotoxicity = format: cell-based; settings: low micromolar range; data not shown
# [1] = immunoblotting, HN252 5 μM, 2 h
compound,measurement,setting,value
Nc1cc(-c2ccc(-c3ccc(O)c(O)c3)cc2)ccc1C(=O)O [HN252],phosphorylation of JNK,HL7702 cells; [1],up‐regulated
same,phosphorylation of β-catenin,HL7702 cells; [1],enhanced phosphorylation
same,"phosphorylation of AMPKα, CDK2 and p38","HL7702 cells; increasing concentration of HN252, 2 h",dramatically increased
same,IC50,PPM1G,32.6 ± 5.54 µM
same,IC50,PPM1F,30.6 ± 4.05 µM
same,IC50,PPM1B-R33K,58.6 ± 10 µM
same,IC50,PPM1B-K170A,30.1 ± 5.7 µM
same,cytotoxicity,Cytotoxicity,no detectable cytotoxicity
